What was measured:
Test in all cases: DNA chip expression analysis of barley leaves after soil treatment
Type in all cases: in vivo
Details in all cases: 10 mg per plant to soil
[1] = tested on: Contig2990_at CHITINASE (EC 3.2.1.14)
Procedure: (§1) Barley seeds (of the Baroness variety) were sown in pots containing soil about 2 cm deep (1250 g of sandy loam/per pot; the soil moisture content was adjusted to 70% of the maximum water-holding capacity) and cultivated in a climatized chamber under specified light, moisture and temperature conditions (15 h white light, 70% atmospheric humidity, 23-19° C. day/night).
(§2) 14 days after the emergence of the barley plants 10 mg of imidacloprid per plant, dissolved in 100 ml water, were applied by means of a pipette to the soil around the base of the shoot. The same volume of water without any active compound was applied to the control pots. After the soil treatment the plants were no longer watered. At various times after application (0.25; 1; 6; 8; 11; 13; 15; 16 and 17 days) the leaves were harvested, quick-frozen in liquid nitrogen and stored at −80° C. until further treatment.
(§3) The labelled RNA probes for the DNA chip hybridization were produced according to the protocols (Expression Analysis, Technical Manual) of the Affymetrix company (Affymetrix Inc., 3380 Central Expressway, Santa Clara, Calif., USA). Whole RNA was first of all isolated from in each case 500 mg of the harvested leaves. 10 μg portions of whole RNA were used for the first and second strand cDNA synthesis. The cDNA was amplified with T7 polymerase and simultaneously labelled with biotin-UTP. 20 μg portions of this biotinylated cDNA were used for the hybridization of the barley genome array (Barleyl Gene Chip, Item no: 511012) from Affymetrix. This DNA microarray contains DNA sequences of 22840 genes composed of a total of 400000 EST (Expressed Sequence Tag) sequences. Then the DNA microarrays were washed in the Affymetrix Fluidics Station, stained with streptavidin/phycoerythrin (Molecular Probes, P/N S-866) and scanned with the Affymetrix Gene Chip Scanner 3000. The fluorescence data obtained were analyzed with the Microarray Suite 5 software from Affymetrix and the Expressionist Pro software from the GeneData company. After a quality check, all of the DNA chip analyses were stored in a database. Since the Affymetrix Gene Chip System is based on measuring the absolute expression values of the genes contained in the chip, the expression values of the biological replicates of treated and non-treated plants were averaged after normalization (median calculation). With the aid of the statistical ANOVA method, those genes were identified whose expression was increased in the plants treated with imidacloprid but remained relatively constant in the untreated controls. The assembly of gene groups from specific metabolic pathways, signal transduction chains or functions was carried out by a keyword search through the gene annotations supplied by Affymetrix and by linking the genes to their corresponding Gene Ontology Annotations (Gene Ontology Consortium).

[2] = tested on: Contig2209_at PATHOGENESIS RELATED PROTEIN (HV-1A)
Procedure: as §1, §2, §3

[3] = tested on: Contig17082_at TRYPSIN INHIBITOR
Procedure: as §1, §2, §3

[4] = tested on: Contig2214_s_at PATHOGENESIS RELATED PROTEIN (HV-1A)
Procedure: as §1, §2, §3

[5] = tested on: Contig4405_x_at PATHOGENESIS-RELATED PROTEIN PR-10A
Procedure: as §1, §2, §3

O=[N+]([O-])/N=C1\NCCN1Cc1ccc(Cl)nc1 [imidacloprid]
Induction factor = Expression (treated)/Expression (untreated) ([1]; 0.25 d): 0.9
Median of the raw expression data, treated ([1]; 0.25 days): 31.12
Induction factor = Expression (treated)/Expression (untreated) ([1]; 1 d): 0.9
Median of the raw expression data, treated ([1]; 1 day): 29.13
Induction factor = Expression (treated)/Expression (untreated) ([1]; 6 d): 8.4
Median of the raw expression data, treated ([1]; 6 days): 561.20
Induction factor = Expression (treated)/Expression (untreated) ([1]; 8 d): 19.3
Median of the raw expression data, treated ([1]; 8 days): 830.74
Induction factor = Expression (treated)/Expression (untreated) ([1]; 11 d): 13.6
Median of the raw expression data, treated ([1]; 11 days): 664.56
Induction factor = Expression (treated)/Expression (untreated) ([1]; 13 d): 3.0
Median of the raw expression data, treated ([1]; 13 days): 235.46
Induction factor = Expression (treated)/Expression (untreated) ([1]; 15 d): 1.1
Median of the raw expression data, treated ([1]; 15 days): 227.32
Induction factor = Expression (treated)/Expression (untreated) ([1]; 16 d): 2.5
Median of the raw expression data, treated ([1]; 16 days): 76.80
Induction factor = Expression (treated)/Expression (untreated) ([1]; 17 d): 0.6
Median of the raw expression data, treated ([1]; 17 days): 32.84
Induction factor = Expression (treated)/Expression (untreated) ([2]; 0.25 d): 0.8
Median of the raw expression data, treated ([2]; 0.25 days): 187.60
Induction factor = Expression (treated)/Expression (untreated) ([2]; 1 d): 0.6
Median of the raw expression data, treated ([2]; 1 day): 153.35
Induction factor = Expression (treated)/Expression (untreated) ([2]; 6 d): 9.8
Median of the raw expression data, treated ([2]; 6 days): 4773.49
Induction factor = Expression (treated)/Expression (untreated) ([2]; 8 d): 11.5
Median of the raw expression data, treated ([2]; 8 days): 8173.99
Induction factor = Expression (treated)/Expression (untreated) ([2]; 11 d): 12.1
Median of the raw expression data, treated ([2]; 11 days): 8587.82
Induction factor = Expression (treated)/Expression (untreated) ([2]; 13 d): 6.0
Median of the raw expression data, treated ([2]; 13 days): 1723.94
Induction factor = Expression (treated)/Expression (untreated) ([2]; 15 d): 2.7
Median of the raw expression data, treated ([2]; 15 days): 1689.29
Induction factor = Expression (treated)/Expression (untreated) ([2]; 16 d): 2.5
Median of the raw expression data, treated ([2]; 16 days): 2069.04
Induction factor = Expression (treated)/Expression (untreated) ([2]; 17 d): 0.6
Median of the raw expression data, treated ([2]; 17 days): 888.58
Induction factor = Expression (treated)/Expression (untreated) ([3]; 0.25 d): 0.9
Median of the raw expression data, treated ([3]; 0.25 days): 161.42
Induction factor = Expression (treated)/Expression (untreated) ([3]; 1 d): 1.1
Median of the raw expression data, treated ([3]; 1 day): 162.50
Induction factor = Expression (treated)/Expression (untreated) ([3]; 6 d): 3.8
Median of the raw expression data, treated ([3]; 6 days): 745.06
Induction factor = Expression (treated)/Expression (untreated) ([3]; 8 d): 3.7
Median of the raw expression data, treated ([3]; 8 days): 853.21
Induction factor = Expression (treated)/Expression (untreated) ([3]; 11 d): 3.6
Median of the raw expression data, treated ([3]; 11 days): 911.63
Induction factor = Expression (treated)/Expression (untreated) ([3]; 13 d): 2.2
Median of the raw expression data, treated ([3]; 13 days): 281.55
Induction factor = Expression (treated)/Expression (untreated) ([3]; 15 d): 1.5
Median of the raw expression data, treated ([3]; 15 days): 209.34
Induction factor = Expression (treated)/Expression (untreated) ([3]; 16 d): 1.6
Median of the raw expression data, treated ([3]; 16 days): 276.41
Induction factor = Expression (treated)/Expression (untreated) ([3]; 17 d): 1.1
Median of the raw expression data, treated ([3]; 17 days): 225.25
Induction factor = Expression (treated)/Expression (untreated) ([4]; 0.25 d): 0.9
Median of the raw expression data, treated ([4]; 0.25 days): 86.29
Induction factor = Expression (treated)/Expression (untreated) ([4]; 1 d): 0.5
Median of the raw expression data, treated ([4]; 1 day): 44.68
Induction factor = Expression (treated)/Expression (untreated) ([4]; 6 d): 9.8
Median of the raw expression data, treated ([4]; 6 days): 3322.93
Induction factor = Expression (treated)/Expression (untreated) ([4]; 8 d): 11.1
Median of the raw expression data, treated ([4]; 8 days): 4807.28
Induction factor = Expression (treated)/Expression (untreated) ([4]; 11 d): 9.3
Median of the raw expression data, treated ([4]; 11 days): 4463.75
Induction factor = Expression (treated)/Expression (untreated) ([4]; 13 d): 5.1
Median of the raw expression data, treated ([4]; 13 days): 636.20
Induction factor = Expression (treated)/Expression (untreated) ([4]; 15 d): 3.0
Median of the raw expression data, treated ([4]; 15 days): 808.24
Induction factor = Expression (treated)/Expression (untreated) ([4]; 16 d): 2.4
Median of the raw expression data, treated ([4]; 16 days): 1241.52
Induction factor = Expression (treated)/Expression (untreated) ([4]; 17 d): 0.6
Median of the raw expression data, treated ([4]; 17 days): 472.04
Induction factor = Expression (treated)/Expression (untreated) ([5]; 0.25 d): 1.1
Median of the raw expression data, treated ([5]; 0.25 days): 60.34
Induction factor = Expression (treated)/Expression (untreated) ([5]; 1 d): 0.9
Median of the raw expression data, treated ([5]; 1 day): 55.96
Induction factor = Expression (treated)/Expression (untreated) ([5]; 6 d): 2.1
Median of the raw expression data, treated ([5]; 6 days): 146.82
Induction factor = Expression (treated)/Expression (untreated) ([5]; 8 d): 2.8
Median of the raw expression data, treated ([5]; 8 days): 181.30
Induction factor = Expression (treated)/Expression (untreated) ([5]; 11 d): 2.2
Median of the raw expression data, treated ([5]; 11 days): 125.79
Induction factor = Expression (treated)/Expression (untreated) ([5]; 13 d): 1.3
Median of the raw expression data, treated ([5]; 13 days): 55.42
Induction factor = Expression (treated)/Expression (untreated) ([5]; 15 d): 1.1
Median of the raw expression data, treated ([5]; 15 days): 57.66
Induction factor = Expression (treated)/Expression (untreated) ([5]; 16 d): 1.4
Median of the raw expression data, treated ([5]; 16 days): 88.69
Induction factor = Expression (treated)/Expression (untreated) ([5]; 17 d): 1.5
Median of the raw expression data, treated ([5]; 17 days): 87.06
